Test results reported in patent US12708630B2, “Combined therapy of 4′-thio-5-aza-2′-deoxycytidine and Venetoclax” (PINOTBIO, INC., priority 2021, dated 2026).
pIC50: −log10 of the molar value.

How the values were obtained:
Test in all cases: drug activity profiling cytotoxicity
Format in all cases: cell-based
[1] = system: MDA MB 453; conditions: Homo sapiens; MDA MB 453 cell line, Breast; read-out: Aza-T-dCyd IC50
Experimental: (§1) To obtain a biomarker for Aza-T-dCyd, drug activity profiling analysis was performed to evaluate the cytotoxicity of 200 cell lines.
(§2) The drug responsiveness analysis of Aza-T-dCyd through drug activity profiling and genomic analysis of 200 cell lines confirmed the potent efficacy of Aza-T-dCyd in various solid tumors (Table 2).

[2] = system: SW837; conditions: Homo sapiens; SW837 cell line, Colon; read-out: Aza-T-dCyd IC50
Experimental: as §1, §2

[3] = system: LS1034; conditions: Homo sapiens, LS-1034; LS1034 cell line, Colon; read-out: Aza-T-dCyd IC50
Experimental: as §1, §2

[4] = system: Hs 578T; conditions: Homo sapiens; Hs 578T cell line, Breast; read-out: Aza-T-dCyd IC50
Experimental: as §1, §2

[5] = system: C-4 II; conditions: Homo sapiens; C-4 II cell line, Female GU (Cervix); read-out: Aza-T-dCyd IC50
Experimental: as §1, §2

[6] = system: NCI-H292; conditions: Homo sapiens; NCI-H292 cell line, Lung (NSCLC); read-out: Aza-T-dCyd IC50
Experimental: as §1, §2

[7] = system: SK-BR-3; conditions: Homo sapiens; SK-BR-3 cell line, Breast; read-out: Aza-T-dCyd IC50
Experimental: as §1, §2

[8] = system: NCI-H69; conditions: Homo sapiens; NCI-H69 cell line, Lung (SCLC); read-out: Aza-T-dCyd IC50
Experimental: as §1, §2

[9] = system: RL95-2; conditions: Homo sapiens; RL95-2 cell line, Female GU (Uterus); read-out: Aza-T-dCyd IC50
Experimental: as §1, §2

[10] = system: AsPC-1; conditions: Homo sapiens, ASPC1; AsPC-1 cell line, Pancreas; read-out: Aza-T-dCyd IC50
Experimental: as §1, §2

[11] = system: SK-MEL-28; conditions: Homo sapiens; SK-MEL-28 cell line, Skin (Melanoma); read-out: Aza-T-dCyd IC50
Experimental: as §1, §2

[12] = system: SCC-4; conditions: Homo sapiens; SCC-4 cell line, Head and Neck; read-out: Aza-T-dCyd IC50
Experimental: as §1, §2

[13] = system: SK-NEP-1; conditions: Homo sapiens; SK-NEP-1 cell line, Kidney; read-out: Aza-T-dCyd IC50
Experimental: as §1, §2

[14] = system: DBTRG-05MG; conditions: Homo sapiens; DBTRG-05MG cell line, CNS (Glioma); read-out: Aza-T-dCyd IC50
Experimental: as §1, §2

[15] = system: Daudi; conditions: Homo sapiens; Daudi cell line, Burkitt's lymphoma; read-out: Aza-T-dCyd IC50
Experimental: as §1, §2

[16] = system: HCT-116; conditions: Homo sapiens; HCT-116 cell line, Colon; read-out: Aza-T-dCyd IC50
Experimental: as §1, §2

[17] = system: OE21; conditions: OE21 cell line, Head and Neck; read-out: Aza-T-dCyd IC50
Experimental: as §1, §2

[18] = system: Raji; conditions: Homo sapiens; Raji cell line, Burkitt's lymphoma; read-out: Aza-T-dCyd IC50
Experimental: as §1, §2

[19] = system: Caki-2; conditions: Homo sapiens; Caki-2 cell line, Kidney; read-out: Aza-T-dCyd IC50
Experimental: as §1, §2

[20] = system: BT20; conditions: Homo sapiens, BT-20; BT20 cell line, Breast; read-out: Aza-T-dCyd IC50
Experimental: as §1, §2

[21] = system: NU-DUL-1; conditions: Homo sapiens; NU-DUL-1 cell line, B-cell lymphoma; read-out: Aza-T-dCyd IC50
Experimental: as §1, §2

[22] = system: PA-1; conditions: Homo sapiens; PA-1 cell line, Female GU (Ovary); read-out: Aza-T-dCyd IC50
Experimental: as §1, §2

[23] = system: JAR; conditions: JAR cell line, Placenta; read-out: Aza-T-dCyd IC50
Experimental: as §1, §2

[24] = system: MEG01; conditions: Homo sapiens, MEG-01; MEG01 cell line, CML; read-out: Aza-T-dCyd IC50
Experimental: as §1, §2

[25] = system: SW1417; conditions: Homo sapiens; SW1417 cell line, Colon; read-out: Aza-T-dCyd IC50
Experimental: as §1, §2

[26] = system: DOHH-2; conditions: Homo sapiens; DOHH-2 cell line, B-cell lymphoma; read-out: Aza-T-dCyd IC50
Experimental: as §1, §2

[27] = system: RPMI-7951; conditions: Homo sapiens; RPMI-7951 cell line, Skin (Melanoma); read-out: Aza-T-dCyd IC50
Experimental: as §1, §2

[28] = system: A204; conditions: Homo sapiens; A204 cell line, Sarcoma; read-out: Aza-T-dCyd IC50
Experimental: as §1, §2

[29] = system: NCIH446; conditions: Homo sapiens, NCI-H446; NCIH446 cell line, Lung (SCLC); read-out: Aza-T-dCyd IC50
Experimental: as §1, §2

[30] = system: COR-L23; conditions: Homo sapiens; COR-L23 cell line, Lung (NSCLC); read-out: Aza-T-dCyd IC50
Experimental: as §1, §2

[31] = system: MS751; conditions: MS751 cell line, Female GU (Cervix); read-out: Aza-T-dCyd IC50
Experimental: as §1, §2

Molecule `Nc1ncn([C@H]2CC(O)[C@@H](CO)S2)c(=O)n1` (stereo partly shown) [Aza-T-dCyd, 4′-thio-5-aza-2′-deoxycytidine] has a pIC50 [1] of 5.72, a pIC50 [2] of 6.45 and a pIC50 [3] of 5.85. For the same molecule, the pIC50 [4] was under 5.00, the pIC50 [5] was 6.11 and the pIC50 [6] was 6.71. The pIC50 [7] was 5.03, the pIC50 [8] was under 5.00 and the pIC50 [9] was 6.15. The pIC50 [10] was 5.67, the pIC50 [11] was 5.60 and the pIC50 [12] was 5.54. It also gave a pIC50 [13] of under 5.00, a pIC50 [14] of under 5.00 and a pIC50 [15] of 6.35. It also gave a pIC50 [16] of 7.00, a pIC50 [17] of 6.82 and a pIC50 [18] of 7.12. The pIC50 [19] was 6.44, the pIC50 [20] was under 5.00 and the pIC50 [21] was 7.61. It also gave a pIC50 [22] of 7.41, a pIC50 [23] of 6.53 and a pIC50 [24] of 5.97. It also gave a pIC50 [25] of under 5.00, a pIC50 [26] of 6.22 and a pIC50 [27] of 6.28. The pIC50 [28] was 6.80, the pIC50 [29] was 5.52 and the pIC50 [30] was 7.03. For the same molecule, the pIC50 [31] was under 5.00.
